row,Compound,melting point [°C]
1,CCCNC(=O)c1ccc(F)c2c1CC(N(CCCc1c[nH]c3ccc(F)cc13)C1CCC1)CO2 (centres undefined),67
2,CCCC(CCC)C(=O)NCC(=O)NCCCCCCNC(=O)n1cc(F)c(=O)[nH]c1=O,111 to 112
3,CS(=O)(=O)CS(=O)(=O)OCCCl,60 to 62
4,CC(C)(C)OC(=O)N1CCN(C(=O)SCc2ccc(O[Si](C)(C)C(C)(C)C)cc2)CC1,53 to 54
5,O=C(O)CCC(=O)c1ccc(OC2CCCCC2)cc1,190 to 192
6,N#CC1=Nc2ccc(Cl)cc2Oc2ccccc21,185 to 188
7,CN(C)C=C(C#N)C(=O)Nc1ccccc1Br,140 to 141
8,CC(C)(C)c1csc(C(C#N)=C(O)c2c(F)cccc2F)n1,207 to 209
9,Cc1oc(-c2ccco2)nc1COc1ccc(CO)cn1,120 to 121
10,CCCC1CC(=O)Nc2c1cnn2CC (centres undefined),108 to 110
11,CNCCN(C)C(=O)OC(Cc1ccccc1)C(=O)N(C)C(Cc1c[nH]cn1)C(=O)NC(CC1CCCCC1)C(O)CCC(C)C (centres undefined),65 to 68
12,O=C(O)Cc1sccc1NC(=O)C(=O)NC(=O)c1ccco1,169
13,C#Cc1ccc2sccc2c1,55
14,COc1cccc2c1Sc1ccccc1C21CCN(C#N)CC1,145 to 146
15,BrC(Br)(Br)c1nc2ccccc2s1,79 to 80
16,CCC1Cc2cc(OCC(=O)O)c(Cl)c(Cl)c2C1=O (centres undefined),171 to 172
17,O=c1[nH]c2ccc(Cl)cc2n1CCCCl,122
18,CC(=O)OCCCCn1c(=O)sc2c(=O)[nH]c(N)nc21,189 to 190
19,CCCN(CCC(N)=O)CCC(N)=O,101 to 102
20,OC1CCc2cc(Cl)c(Cl)cc21 (centres undefined),84
21,CCCCc1cc2cc([N+](=O)[O-])ccc2[nH]1,105
22,c1ccc2c(c1)-c1ccccc1C2CN1CCCCC1,118 to 119
23,CC(C)CNC(=O)/C=C/c1cccc(Cl)c1,112
24,CC(=O)NC(COC1CCN(c2nc3ccc(OCC4CC4)cc3o2)CC1)C(F)(F)F (centres undefined),126 to 127
25,CN1C(=O)C2(COc3cc4c(cc32)OCCO4)c2c(C(=O)O)cccc21 (centres undefined),297 to 299
26,CCCc1nc(C#N)c(N)n1CC(C)C,135 to 136

row,Compound,melting point [°C]
1,CC(=O)NC1(c2ccc(CN3CCN(c4ccc(F)cc4)CC3)cc2)CC1,124 to 126
2,O=[N+]([O-])c1ccc(N2CCN(c3ccc(O)cc3)CC2)cc1,260
3,CC(C(=O)O)c1ccc(N=c2sccn2C)c(Cl)c1 (centres undefined),132 to 133
4,CCCCc1cc2cc(OCC(=O)OCC)c(Cl)c(Cl)c2s1,72 to 73
5,CCOC(=O)CSCc1cc(-c2nn(C)c(C(F)(F)F)c2Cl)c(F)cc1Cl,63
6,CCC[C@H](N[C@@H](C)C(=O)N1N=C(C(C)(C)C)S[C@H]1C(=O)O)C(=O)OCC,183 to 185
7,CCc1nc2c(N)nc(C)c(C)c2n1CCOCCN1CCCS1(=O)=O,157 to 159
8,N#Cc1cccc(C(=O)NC2CCCNC(=O)C2)c1 (centres undefined),221 to 222
9,CCOC(=O)c1sc(N)nc1C(C)C,174 to 178
10,CC(=O)OC1Oc2ccc(C#N)cc2C1(C)C (centres undefined),138 to 140
11,CCOC(=O)N1CCN(c2ccc(Cl)nn2)CC1,124
12,O=C1Nc2ccc(F)c(Cl)c2C(=O)N2CCC[C@@H]12,217 to 219
13,CCCCc1nc(Cl)c(C=O)n1Cc1ccc2oc(-c3ccccc3-c3nnn[nH]3)c(Br)c2c1,122 to 124
14,COc1ccc(C(C)OC)c(OC)c1C(O)c1cn(C(c2ccccc2)(c2ccccc2)c2ccccc2)cn1 (centres undefined),96 to 99
15,OCC#Cc1cnc(Cl)nc1NC1CCCC1,162 to 163
16,CC(C)(O)Cc1cccc(O)c1,91 to 94
17,CCNC(=O)NC(N)=O,158 to 160
18,COC(=O)C(CC1CCCC1)c1ccc(S(C)(=O)=O)c(F)c1 (centres undefined),66 to 68
19,CSc1ccc2c(=O)c(SC)cn(C)c2c1,154 to 155
20,COc1nc(C2CC2)nc(C(Cl)(Cl)Cl)n1,49 to 51
21,CCC(=O)NCC=C1CCc2ccc3nc(C)oc3c21,214 to 216
22,CC(c1ccc(F)cc1)N1CCC(n2cnc3ccccc3c2=O)CC1 (centres undefined),179 to 180
23,CC(C)(O)Cn1cnc2c1c1ccccc1n1nnnc21,246 to 247
24,NC(=O)N1CC(OCc2cccc(Cl)c2)C1,163 to 166
25,"O=C(OCC1CCCN1)N1CCN(c2cc(N3CCCC3)nc(N3CCCC3)n2)CC1 (single isomer, unassigned; (+))",137 to 138

# Results, then the compound that gave them:
row,melting point [°C],Compound
1,121 to 123,CCCCC(=O)Nc1ccc(C(F)(F)F)c(-n2nc(CC)n(Cc3ccc(-c4ccccc4S(=O)(=O)NC(=O)OC(C)(C)C)cc3F)c2=O)c1
2,170,O=C(CN1C(=O)c2ccccc2C1=O)Nc1cccc(OC(F)(F)F)c1
3,279 to 283,O=C(CCC1CCCC1)Nc1ccc2ncn3c(=O)c(C(=O)O)cnc3c2c1
4,136 to 138,CCOC(=NS(C)(=O)=O)N1Cc2ccccc2-c2ccccc2C1
5,109 to 110,CCOC(=O)c1nc(SC)[nH]c(=O)c1OCc1ccccc1
6,78 to 80,CCCCOC(C=Cc1ccc(C(=O)O)cc1)c1ccc2c(c1)C(C)(C)CCC2(C)C (racemic)
7,154 to 158,Cc1ccc(CN(c2ccccc2CC(=O)O)c2c(Cl)cccc2Cl)cc1
8,212 to 213,CN(C)C(=O)Cn1c(-c2ccc(Cl)cc2)nc2cccnc21
9,133 to 135,Cc1cc(C(Cc2ccc(CCCc3nc(-c4ccccc4)oc3C)cc2)C(=O)O)on1 (centres undefined)
10,178 to 180,CCc1cccc(C(C)C)c1NC(=O)NCC1(c2ccccc2)CCCCC1
11,151 to 153,NC(Cc1c[nH]c2cc(Cl)cc(Cl)c12)C(=O)OCCC(=O)OCc1ccccc1 (centres undefined)
12,78 to 80,CC1(C)CC(N(CCO)S(C)(=O)=O)c2cc(OCc3ccccc3)ccc2O1 (centres undefined)
13,165,CCOC(=O)COC1=C(C(=O)Nc2cc(Cl)cc(Cl)c2)SC2=NCCCN21
14,166 to 167,CCc1ccc(CCOc2ccc(C=C3SC(=O)NC3=O)cc2)nc1
15,99 to 101,CC(C)(C)C(F)(F)c1ccc(C[C@@H](NC(=O)c2cccc3c(Cl)cccc23)[C@@H](O)c2cccc(Cl)c2)cc1 (racemic)
16,69 to 71,COc1cc(-c2ccccc2)on1
17,159 to 160,CCN(CC)C(=O)Oc1c2c(ccc3cc(F)ccc32)nn1-c1ccc(F)cc1
18,119,COC(=O)CCCc1cc2nc(Cl)ccc2n1S(=O)(=O)c1cccnc1
19,187 to 188,Cc1c(-c2ccnc(Nc3ccc(C(=O)N4CCOCC4)cc3)n2)cccc1[N+](=O)[O-]
20,184 to 185,CCOC(=O)c1cc(C)cc(-c2ccc(NC(=O)OCc3ccccc3)cc2)n1
21,218,O=C(O)c1c(O)ccc2ccccc12
22,222,COc1ccc(-c2ccc3c(C(=O)O)cccc3c2)cc1C12CC3CC(CC(C3)C1)C2
23,138 to 140,Cc1ccc(NC(=O)c2ccccc2N)cc1C(F)(F)F
24,290 to 295,CCOC(=O)c1c[nH]c2nc(N3CCN(C(C)=O)CC3)c(F)cc2c1=O

row,melting point [°C],Compound
1,118,C#Cc1ccc2c(c1)CC1SC(c3ccccc3)=NC21O (centres undefined)
2,128 to 129,COc1ccc(OC(=O)[C@H](C)NC(=O)OCc2ccccc2)cc1
3,237,Cn1cncc1C(N)(c1ccc(Cl)cc1)c1ccc2c(c1)c(-c1nc(-c3ccccc3)cs1)cc(=O)n2C (centres undefined)
4,131 to 133,O=C(O)CCC(=O)c1c(-c2ccccc2)cc2ccccn12
5,40 to 55,C=C(CO)C(C(=O)OC(c1ccccc1)c1ccccc1)N1C(=O)C2N=C(Cc3ccccc3)OC21 (centres undefined)
6,85 to 87,CCCC[C@H](NC(=O)[C@H](C)NC(=O)OCc1ccccc1)C(=O)CSCc1ccco1
7,207 to 219,CCOc1cc2c(cc1OC)C(c1ccc(NS(=O)(=O)c3ccc(C)cc3)cc1)=N[C@H]1CCN(C)C[C@@H]21
8,123 to 126,COC(=O)CCCc1cc2cc(Cl)ccc2n1S(=O)(=O)c1cccc2nsnc12
9,191 to 192,NS(=O)(=O)c1ccc(-c2cc3c(cc2-c2ccc(F)cc2)OCO3)cc1
10,146,CC(=O)Oc1ccc(Oc2ccc(NC(=O)Nc3cc(C(C)(C)C)on3)cc2)cc1
11,130 to 133,NS(=O)(=O)c1ccc(-n2cc(C(F)(F)F)nc2-c2ccc(-c3cscn3)cc2)cc1F
12,50 to 55,CC(=O)C(=O)N1C(C(=O)OCc2ccccc2)CC2CCCCC21 (centres undefined)
13,> 300,CNC(=O)c1cccc(Nc2ncnc3[nH]cc(C(=O)c4cccc(F)c4)c23)c1
14,95 to 100,CCOCc1nc2c(N)nc3ccccc3c2n1CC1(NC(=O)OCC)CCCCC1
15,231 to 233,COc1ccc(CNC(=NC#N)Nc2ccc(C3=NNC(=O)CC3C)cc2)cc1 (centres undefined)
16,141 to 143,O=C(O)[C@H](Cc1ccc(OCCc2coc(-c3ccccc3)n2)cc1)NS(=O)(=O)Cc1ccccc1
17,98 to 99,CC(C)c1cc(OCCOCc2ccccc2)cc2c1C(=O)N(CSc1ccccc1)S2(=O)=O
18,158 to 159,O=C1Nc2ccccc2SC1CCN1C=CN(c2ccc(F)cc2)C=C1 (centres undefined)
19,116 to 118,CCC(CC)C(c1ccnn1-c1ccccc1)N(C)S(=O)(=O)c1ccc(Br)s1 (centres undefined)
20,108 to 110,CCCCC(=O)Nc1ccc(Br)c(-n2nc(CC)n(Cc3ccc(-c4ccccc4S(=O)(=O)NC(=O)OC(C)(C)C)cc3F)c2=O)c1
21,71 to 74,CN(C)C(=O)n1cc(C(=O)C2CSC(c3cccnc3)N2)c2ccc(OCc3ccc(F)cc3)cc21 (centres undefined)
22,132 to 133,CCOC1(OCC)CCC2(CC1)c1cc(O)c(O)cc1CC(C(=O)O)N2C(=O)OCc1ccccc1 (centres undefined)
23,155 to 157,CN(C)C=C1CN=C(c2ccccc2Cl)c2ccccc2C1=O
24,247 to 249,COC(=O)c1cc(NC(=O)c2ccccc2)c2cc(Cc3ccc(F)cc3)cnc2c1O
